Several values for one entry are separate records, joined by “and”; a condition that tells them apart may be missing. Identical values can stand only once. Like-named read-outs stand apart in the source and are kept apart here.
Key:
[1] = target: T1, CHK1 (Homo sapiens, UniProt O14757); experiment: CHK1 high-throughput screening; format: biochemical; conditions: for % inhibition @ 20 μM: Table 4, repeated entries per example; for inhibition at 20 µM: read-out: % inhibition @ 20 μM, Table 4, repeated entries per example
T1 sequence (O14757 1-476): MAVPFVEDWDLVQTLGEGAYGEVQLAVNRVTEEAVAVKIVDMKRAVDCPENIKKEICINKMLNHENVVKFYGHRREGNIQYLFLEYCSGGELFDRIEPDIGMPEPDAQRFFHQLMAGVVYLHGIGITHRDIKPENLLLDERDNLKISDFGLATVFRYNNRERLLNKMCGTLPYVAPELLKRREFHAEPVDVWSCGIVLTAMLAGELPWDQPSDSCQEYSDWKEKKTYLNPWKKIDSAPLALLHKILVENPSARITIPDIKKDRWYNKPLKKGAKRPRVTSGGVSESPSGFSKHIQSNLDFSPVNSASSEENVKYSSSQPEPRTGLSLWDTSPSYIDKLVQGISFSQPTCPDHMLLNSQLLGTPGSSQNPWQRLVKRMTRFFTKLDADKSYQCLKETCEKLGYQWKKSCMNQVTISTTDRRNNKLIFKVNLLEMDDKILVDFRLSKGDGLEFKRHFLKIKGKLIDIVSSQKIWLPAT

[2] = target: T2, FAKcd409 (Homo sapiens, UniProt Q05397, P410T); experiment: FAK HTS assay; format: biochemical; conditions: 10 uM compound, HTS Delphia assay
T2 construct: comprises residues methionine 409 to glutamate 689; made in house; host or cells: baculovirus vector expression system
T2 sequence (Q05397 409-689 P410T): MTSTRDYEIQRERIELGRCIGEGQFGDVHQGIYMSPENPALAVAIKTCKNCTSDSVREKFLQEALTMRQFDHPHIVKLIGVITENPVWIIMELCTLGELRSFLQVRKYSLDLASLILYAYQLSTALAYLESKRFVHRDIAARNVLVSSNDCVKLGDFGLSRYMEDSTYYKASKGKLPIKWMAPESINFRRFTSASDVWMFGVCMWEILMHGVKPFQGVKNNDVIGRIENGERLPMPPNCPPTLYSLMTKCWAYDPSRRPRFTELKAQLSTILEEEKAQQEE

[3] = target: T3, phosphorylated VEGF-R2Δ50 (Homo sapiens, UniProt P35968, DEL940-989/E990V); experiment: VEGF-R2 ELISA assay; format: biochemical; conditions: Table 2; * determined with ELISA assay; read-out: FLVK-P Ki
T3 construct: VEGF-R2Δ50 contains residues 806-939 and 990-1171; made in house; host or cells: baculovirus/insect cells
T3 sequence (P35968 with tags, fused parts or gaps DEL940-989/E990V limits assumed): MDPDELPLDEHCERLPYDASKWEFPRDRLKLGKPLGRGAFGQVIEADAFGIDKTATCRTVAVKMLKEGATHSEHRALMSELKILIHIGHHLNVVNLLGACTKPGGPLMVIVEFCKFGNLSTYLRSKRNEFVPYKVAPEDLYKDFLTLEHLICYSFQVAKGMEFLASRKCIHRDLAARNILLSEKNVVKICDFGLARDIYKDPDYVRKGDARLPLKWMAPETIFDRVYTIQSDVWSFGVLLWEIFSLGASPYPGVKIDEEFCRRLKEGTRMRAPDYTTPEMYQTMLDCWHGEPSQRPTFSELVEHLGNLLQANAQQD
Outline: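 Pre-autophosphorylated human VEGF-R2Δ50 (residues 806-939/990-1171, E990V; baculovirus) at 0.8 nM was run with 2 μM biotin-gastrin(1-17), 20 μM ATP, 26 mM MgCl2, 2 mM MnCl2, pH 7.5 Hepes. Phosphopeptide was captured on streptavidin and detected by anti-pTyr-HRP/ABTS at 405 nm; Ki came from activity at varying compound concentrations.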

[4] = target: T4, CDK4/Cyclin D3 complex (Homo sapiens, UniProt P11802); experiment: CDK4/Cyclin D assay; format: biochemical; conditions: Table 2
T4 construct: made in house; host or cells: insect cells co-infected with baculovirus vectors
T4 sequence (P11802 whole entry): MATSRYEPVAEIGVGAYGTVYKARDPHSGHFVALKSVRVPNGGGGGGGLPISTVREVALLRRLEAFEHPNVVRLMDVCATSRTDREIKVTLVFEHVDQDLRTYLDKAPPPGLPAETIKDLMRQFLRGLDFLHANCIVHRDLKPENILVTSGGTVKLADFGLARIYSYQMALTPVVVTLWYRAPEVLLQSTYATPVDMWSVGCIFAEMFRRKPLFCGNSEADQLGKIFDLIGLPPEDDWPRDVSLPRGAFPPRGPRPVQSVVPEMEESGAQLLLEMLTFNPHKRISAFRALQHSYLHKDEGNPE
T4 sequence (P30281 whole entry partner): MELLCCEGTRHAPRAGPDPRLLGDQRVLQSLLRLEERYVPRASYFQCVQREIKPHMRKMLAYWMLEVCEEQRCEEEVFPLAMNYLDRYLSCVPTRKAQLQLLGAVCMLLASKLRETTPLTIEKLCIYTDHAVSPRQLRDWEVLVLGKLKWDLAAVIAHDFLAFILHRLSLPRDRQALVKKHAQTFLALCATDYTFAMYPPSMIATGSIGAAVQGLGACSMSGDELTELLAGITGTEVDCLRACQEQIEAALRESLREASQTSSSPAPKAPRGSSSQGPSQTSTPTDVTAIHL
Outline: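 Insect-cell-expressed CDK4/cyclin D3 (50 nM) phosphorylating His-tagged Rb fragment (residues 386-928) with 25 μM [^32P]ATP in HEPES pH 7.4, MgCl2, 2% DMSO; 20 min at 30 °C, EDTA stop. Filter-captured 32P by phosphorimager; apparent Ki from competitive or tight-binding inhibition fits.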

[5] = target: CDK2/Cyclin A complex (Homo sapiens, UniProt P24941); experiment: CDK2/Cyclin A assay; format: biochemical; conditions: Table 2
Outline: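 Radiometric assay: 150 nM CDK2/cyclin A (insect-cell CDK2, truncated cyclin A) phosphorylates His-tagged Rb fragment (residues 386-928) with 25 μM ATP plus [32P]ATP, pH 7.4 HEPES, 2% DMSO, 30 °C for 20 min. Filter-captured product counted by phosphorimager; apparent Ki from competitive or tight-binding inhibition fits.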

[6] = target: T5, FGF-R1 (Homo sapiens, UniProt P11362, C488A/C584S/L457V); experiment: FGF-R spectrophotometric assay; format: biochemical; conditions: for FGF-R % inhibition @ 5: at 5 (head μM)
T5 construct: starting from the endogenous methionine residue 456 to glutamate 766; made in house; host or cells: baculovirus vector expression system
T5 sequence (P11362 456-766 L457V/C488A/C584S): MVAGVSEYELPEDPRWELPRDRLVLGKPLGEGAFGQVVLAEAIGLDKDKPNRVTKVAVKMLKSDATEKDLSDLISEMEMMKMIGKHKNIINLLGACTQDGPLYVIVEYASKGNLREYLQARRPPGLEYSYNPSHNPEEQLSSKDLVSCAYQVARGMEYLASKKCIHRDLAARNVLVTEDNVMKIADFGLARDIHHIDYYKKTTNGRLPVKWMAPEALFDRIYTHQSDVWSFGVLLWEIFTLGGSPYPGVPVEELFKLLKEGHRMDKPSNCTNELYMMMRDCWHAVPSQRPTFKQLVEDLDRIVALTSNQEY
Outline: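 Kinase domain (Met456–Glu766, baculovirus-expressed) used at 50 nM in a spectrophotometric assay run as for VEGF-R2. Substrates were 2 mM ATP and 15 mM poly(E4Y1).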

[7] = target: T6, phosphorylated VEGF-R2Δ50 (FLVK-P) (Homo sapiens, UniProt P35968, DEL940-989/E990V); experiment: VEGF-R2 coupled spectrophotometric (FLVK-P) assay; format: biochemical; conditions: spectrophotometric assay
T6 construct: VEGF-R2Δ50 contains residues 806-939 and 990-1171; made in house; host or cells: baculovirus/insect cells
T6 sequence (P35968 with tags, fused parts or gaps DEL940-989/E990V limits assumed): as the sequence (P35968 with tags, fused parts or gaps DEL940-989/E990V limits assumed) above
Outline: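 Baculovirus-expressed human VEGF-R2Δ50 (residues 806-939/990-1171, E990V) was autophosphorylated with 3 mM ATP, 40 mM MgCl2 for 2 h at 4° C. ADP formation was coupled via PK/LDH to NADH oxidation, read at 340 nm, with 5.1 mM poly(E4Y1), 1 mM ATP, 25 mM MgCl2, Hepes pH 7.5. Ki came from activity across compound concentrations.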

[8] = target: T7, FL-CHK1 (Homo sapiens, UniProt O14757); experiment: CHK1 assay; format: biochemical; conditions: Table 2; read-out: CHK-1 Ki
T7 construct: C-terminally His-tagged full-length human CHK1 (FL-CHK1); 6xHis (C); made in house; host or cells: baculovirus/insect cells
T7 sequence (O14757 1-476): T1 sequence (O14757 1-476)
Outline: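 Full-length human CHK1 with C-terminal 6×His tag, made in baculovirus/insect cells, 10 nM, phosphorylating 0.125 mM Syntide-2 with 0.15 mM ATP in 50 mM Tris pH 7.5, 25 mM MgCl2, 400 mM NaCl. PK/LDH-coupled NADH oxidation read at 340 nm. Ki from initial rates over varied compound concentrations.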

[9] = test system: lung cancer cells (line MV522); experiment: Cancer cell proliferation (MV522) assay; format: cell-based
[10] = test system: human umbilical vein endothelial cells (HUVEC); experiment: HUVEC proliferation assay; format: cell-based; conditions: Homo sapiens, HUVEC
Outline: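 Readout was MTT dye reduction (A595) after 72 h of stimulation with VEGF at 6 ng/ml final. Compound, in 0.1% DMSO final, was added 1 h before VEGF to HUVEC starved 24 h in 1% FBS. % inhibition was scaled between VEGF-alone and unstimulated wells; IC50 was fitted from triplicate dose curves.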

[11] = target: T8, LCK tyrosine kinase (Homo sapiens, UniProt P06239, C224D/P223M); experiment: LCK spectrophotometric assay; format: biochemical
T8 construct: starting from amino acid residue 223 to the end of the protein at residue 509; made in house; host or cells: insect cells
T8 sequence (P06239 223-509 P223M/C224D): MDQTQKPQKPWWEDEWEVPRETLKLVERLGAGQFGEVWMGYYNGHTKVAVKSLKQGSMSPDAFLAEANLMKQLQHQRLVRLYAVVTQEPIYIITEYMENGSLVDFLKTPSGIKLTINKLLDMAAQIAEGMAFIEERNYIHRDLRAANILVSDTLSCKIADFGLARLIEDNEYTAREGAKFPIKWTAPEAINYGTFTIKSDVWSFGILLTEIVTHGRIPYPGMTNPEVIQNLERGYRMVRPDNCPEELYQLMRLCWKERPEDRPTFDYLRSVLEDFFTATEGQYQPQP
Method: LCK Construct for Assay: The LCK tyrosine kinase was expressed in insect cells as an N-terminal deletion starting from amino acid residue 223 to the end of the protein at residue 509, with the following two amino acid substitutions at the N-terminus: […] and C224D.
The spectrophotometric assay was carried out as described above for VEGF-R2, except for the following changes in concentration: LCK=60 nM, MgCl2=0 mM, poly(E4Y1)=20 mM.

[12] = target: T8, LCK tyrosine kinase; experiment: LCK spectrophotometric assay; format: biochemical; conditions: Table 3, read-out: LCK (% inh @ 1 uM)
[13] = target: T9, unphosphorylated VEGF-R2Δ50 (FLVK) (Homo sapiens, UniProt P35968, DEL940-989/E990V); experiment: VEGF-R2 coupled spectrophotometric assay, unphosphorylated enzyme (FLVK); format: biochemical; conditions: Table 1
T9 construct: VEGF-R2Δ50 contains residues 806-939 and 990-1171; made in house; host or cells: baculovirus/insect cells
T9 sequence (P35968 with tags, fused parts or gaps DEL940-989/E990V limits assumed): as the sequence (P35968 with tags, fused parts or gaps DEL940-989/E990V limits assumed) above
Outline: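 Unphosphorylated VEGF-R2Δ50 (5 to 40 nM) with 20 mM poly(E4Y1), 3 mM ATP, 60 mM MgCl2, 2 mM MnCl2 in 200 mM Hepes pH 7.5. ADP production coupled via PK/LDH to NADH oxidation, read at 340 nm. Ki from activity at varying compound concentrations.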

Row | SMILES | % inhibition @ 20 μM [1] | melting point | Ki [3] [nM] | Ki [4] [nM] | Ki [5] [nM] | % inhibition of FAK ([2]; 10 µM) | inhibition at 20 µM [1] [%] | also measured
1 | COc1ccccc1-c1csc(-c2sc(Nc3ccc(S(N)(=O)=O)cc3)nc2N)n1 [A(3), 4-[4′-Amino-4-(2-methoxy-phenyl)-[2,5′]bithiazolyl-2′-ylamino]-benzenesulfonamide] | 2.8% and −1.9% | 231 to 235 °C (dec.) | 64000 | 8400 | 2500 |  |  | % inhibition of FAK [2]: −9%
2 | COc1cc(Nc2nc(N)c(-c3nc(-c4ccc(F)cc4F)cs3)s2)cc(OC)c1OC [A(9), 4-(2,4-Difluoro-phenyl)-N^2′-(3,4,5-trimethoxy-phenyl)-[2,5′]bithiazolyl-2′,4′-diamine] |  | 180 to 183 °C (dec.) | 1900 |  |  | −6% and −5% and 4% |  | inhibition at 100 µM ([4]; at 100 (printed 100 or 100 μM)): < 0%; CDK2 % inhibition @ 100 ([5]; at 100 (printed 100 or 100 μM)): 29% @
3 | COc1cc(Nc2nc(N)c(-c3nc(-c4ccc(O)cc4)cs3)s2)cc(OC)c1OC [A(10), 4-[4′-Amino-2′-(3,4,5-trimethoxy-phenylamino)-[2,5′]bithiazolyl-4-yl]-phenol] |  | 129 to 133 °C (dec.) |  | 9100 | 13400 | −2% and −5% and −4% |  | FGF-R % inhibition @ 5 ([6]; Table 2): 45% @; Ki ([7]; Table 2): 28 nM
4 | COc1cc(Nc2nc(N)c(-c3nc(-c4ccc(O)c(O)c4)cs3)s2)cc(OC)c1OC [A(12), 4-[4′-Amino-2′-(3,4,5-trimethoxy-phenylamino)-[2,5′]bithiazolyl-4-yl]-benzene-1,2-diol] |  | 132 to 137 °C (dec.) |  | 2700 | 6700 |  |  | % inhibition of FAK [2]: −16%; Ki ([6]; Table 2): 190000 nM; Ki ([7]; Table 2): 34 nM
5 | Cc1nc(-c2sc(Nc3ccc(S(N)(=O)=O)cc3)nc2N)sc1Cc1ccc(F)cc1 [A(15), 4-[4′-Amino-5-(4-fluoro-benzyl)-4-methyl-[2,5′]bithiazolyl-2′-ylamino]-benzenesulfonamide] | −4.1% and −1.2% | 130 to 135 °C (dec.) | 25000 | 7800 | 2700 | −9% and −7% and 0% |  | 
6 | COc1cc(Nc2nc(N)c(-c3nc(-c4cc(O)cc(O)c4)cs3)s2)cc(OC)c1OC [A(18), 5-[4′-Amino-2′-(3,4,5-trimethoxy-phenylamino)-[2,5′]bithiazolyl-4-yl]-benzene-1,3-diol] |  | 198 to 202 °C |  |  |  | 32% and 29% | 60.8 | inhibition at 10 µM [2]: 25%; FGF-R % inhibition @ 5 ([6]; Table 2): 38% @
7 | COc1cc(Nc2nc(N)c(-c3nc(-c4cc(O)ccc4O)cs3)s2)cc(OC)c1OC [A(25), 2-(4′-Amino-2′-(3,4,5-trimethoxy-phenylamino)-[2,5′]bithiazolyl-4-yl]-benzene-1,4-diol] |  | 208 to 212 °C (dec.) | 100 |  |  | 60% and 47% and 57% and 90% and 88% | 19.7 | Ki [8]: 290 nM
8 | COc1cc(Nc2nc(N)c(-c3nc(-c4cc(O)ccc4Br)cs3)s2)cc(OC)c1OC [A(26), 3-[4′-Amino-2′-(3,4,5-trimethoxy-phenylamino)-[2,5′]bithiazolyl-4-yl]-4-bromophenol] |  | 214 to 216 °C |  |  |  |  | 42.5 | % inhibition of FAK [2]: 72%; FGF-R % inhibition @ 5 ([6]; Table 2): 52% @; Ki ([7]; Table 2): 14 nM; IC50 ([9]; MV522, Table 2): 7500 nM; IC50 ([10]; Table 2): > 1000 nM
9 | C=CCOc1cc(O)cc(-c2csc(-c3sc(Nc4ccc(S(N)(=O)=O)cc4)nc3N)n2)c1 [A(62), 4-[4-(3-Allyloxy-5-hydroxyphenyl)-4′-amino-[2,5′]bithiazolyl-2′-ylamino]-benzenesulfonamide] | 12.2% | 200 to 202 °C |  | 4400 | 530 | 6% | 7.4 | inhibition at 10 µM [2]: 7%
10 | COc1ccc(/C=C/c2csc(-c3sc(Nc4ccc(S(N)(=O)=O)cc4)nc3N)n2)cc1O [A(65), 4-{4′-Amino-4-[2-(3-hydroxy-4-methoxy-phenyl)-ethenyl]-[2,5′]bithiazolyl-2′-ylamino}-benzenesulfonamide] | 3.2% and 2.5% and 8.2% | 190 to 193 °C (dec.) |  | 2100 | 150 | −31% and −39% |  | 
11 | COc1cc(Nc2nc(N)c(-c3nc(-c4cc(NC(=O)c5cccc(Cl)c5)ccc4C)no3)s2)cc(OC)c1OC [D(75), 3-[3-[(3-chlorobenzoyl)amino]-6-methyl-phenyl]-5-[2-[(3,4,5-trimethoxyphenyl)amino]-4-amino-5-thiazolyl]-1,2,4-oxadiazole] |  |  |  |  |  |  |  | inhibition at 1 µM ([6]; Table 3, % inh @ 1 uM, read-out: FGF-P Ki (nM) (% inh @ 1 uM)): 64%; Ki ([11]; Table 3, first value of cells with two values): 1.1 nM; inhibition at 1 µM [12]: 97%; IC50 ([10]; Table 3): 7.8 nM
12 | CC(=O)Nc1nc(N)c(-c2nc(-c3cccc(NC(=O)c4ccccc4)c3)cs2)s1 [F(9), N-[3-(2′-Acetylamino-4′-amino-[2,5′]bithiazolyl-4-yl)-phenyl]benzamide] |  |  |  |  |  |  |  | Ki [13]: 9.6 nM; Ki ([7]; Table 1): 7.8 nM; IC50 ([9]; MV522, Table 1): > 10000 nM; inhibition at 1 µM ([11]; Table 1, 1 μM): 12%; IC50 ([10]; Table 1): 21 nM

From patent US6620828B2, “Thiazole compounds and pharmaceutical compositions for inhibiting protein kinases and methods for their use” (Agouron Pharmaceuticals, Inc., priority 1999, dated 2003)
